{"source": "patent US20230123334A1", "about": "“AMINO LIPID COMPOUND, PREPARATION METHOD THEREFOR, AND APPLICATION THEREOF” (SHENZHEN SHENXIN BIOTECHNOLOGY CO., LTD., priority 2020, published 2023)"}
{"system": "HEK293 cells", "assay": "Preliminary screening as mRNA vectors, EGFP mRNA transfection of HEK293 cells", "assay_type": "cell-based", "conditions": "EGFP mRNA 50 ng per well, 96-well plates; percentage of GFP fluorescent cells relative to total number of cells (Hoechst)", "summary_of_the_method": "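HEK293 cells in DMEM plus 10% FBS transfected in 96-well format with 50 ng EGFP mRNA per well; Lipofectamine2000 served as positive control. Read-out is the percentage of GFP-fluorescent cells among total cells, counted by Hoechst nuclear stain.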", "units": {"Absolute mRNA transfection efficiency in HEK293 cells": "%"}}
{"compound": "CCCCCCCCCCCCCCCCCCNc1nc(NCCN2CCN(C)CC2)nc(SCCCCCCCCCCC)n1", "note": "[Compound D5S11N18]", "Absolute mRNA transfection efficiency in HEK293 cells": 4.7}
{"compound": "CCCCCCCCCCCCSc1nc(NCCCCCC)nc(NCCN2CCN(C)CC2)n1", "note": "[Compound D5S12N6]", "Absolute mRNA transfection efficiency in HEK293 cells": 0.3}
{"compound": "CCCCCCCCCCCCSc1nc(NCCCCCCC)nc(NCCN2CCN(C)CC2)n1", "note": "[Compound D5S12N7]", "Absolute mRNA transfection efficiency in HEK293 cells": 9.9}
{"compound": "CCCCCCCCCCCCSc1nc(NCCCCCCCC)nc(NCCN2CCN(C)CC2)n1", "note": "[Compound D5S12N8]", "Absolute mRNA transfection efficiency in HEK293 cells": 22.6}
{"compound": "CCCCCCCCCCCCSc1nc(NCCCCCCCCC)nc(NCCN2CCN(C)CC2)n1", "note": "[Compound D5S12N9]", "Absolute mRNA transfection efficiency in HEK293 cells": 26.5}
{"compound": "CCCCCCCCCCCCSc1nc(NCCCCCCCCCCC)nc(NCCN2CCN(C)CC2)n1", "note": "[Compound D5S12N11]", "Absolute mRNA transfection efficiency in HEK293 cells": 1.1}
{"compound": "CCCCCCCCCCCCNc1nc(NCCN2CCN(C)CC2)nc(SCCCCCCCCCCCC)n1", "note": "[Compound D5S12N12]", "Absolute mRNA transfection efficiency in HEK293 cells": 3.5}
{"compound": "CCCCCCCCCCCCCNc1nc(NCCN2CCN(C)CC2)nc(SCCCCCCCCCCCC)n1", "note": "[Compound D5S12N13]", "Absolute mRNA transfection efficiency in HEK293 cells": 0.4}
{"compound": "CCCCCCCCCCCCCCCNc1nc(NCCN2CCN(C)CC2)nc(SCCCCCCCCCCCC)n1", "note": "[Compound D5S12N15]", "Absolute mRNA transfection efficiency in HEK293 cells": 0.8}
{"compound": "CCCCCCCCCCCCCCCCNc1nc(NCCN2CCN(C)CC2)nc(SCCCCCCCCCCCC)n1", "note": "[Compound D5S12N16]", "Absolute mRNA transfection efficiency in HEK293 cells": 3.7}
{"compound": "CCCCCCCCCCCCCCCCCCNc1nc(NCCN2CCN(C)CC2)nc(SCCCCCCCCCCCC)n1", "note": "[Compound D5S12N18]", "Absolute mRNA transfection efficiency in HEK293 cells": 0.0}
{"compound": "CCCCCCCCCCCCCCSc1nc(NCCCCCC)nc(NCCN2CCN(C)CC2)n1", "note": "[Compound D5S14N6]", "Absolute mRNA transfection efficiency in HEK293 cells": 48.0}
{"compound": "CCCCCCCCCCCCCCSc1nc(NCCCCCCC)nc(NCCN2CCN(C)CC2)n1", "note": "[Compound D5S14N7]", "Absolute mRNA transfection efficiency in HEK293 cells": 59.0}
{"compound": "CCCCCCCCCCCCCCSc1nc(NCCCCCCCC)nc(NCCN2CCN(C)CC2)n1", "note": "[Compound D5S14N8]", "Absolute mRNA transfection efficiency in HEK293 cells": 65.6}
{"compound": "CCCCCCCCCCCCCCSc1nc(NCCCCCCCCC)nc(NCCN2CCN(C)CC2)n1", "note": "[Compound D5S14N9]", "Absolute mRNA transfection efficiency in HEK293 cells": 44.9}
{"compound": "CCCCCCCCCCCCCCSc1nc(NCCCCCCCCCCC)nc(NCCN2CCN(C)CC2)n1", "note": "[Compound D5S14N11]", "Absolute mRNA transfection efficiency in HEK293 cells": 19.8}
{"compound": "CCCCCCCCCCCCCCSc1nc(NCCCCCCCCCCCC)nc(NCCN2CCN(C)CC2)n1", "note": "[Compound D5S14N12]", "Absolute mRNA transfection efficiency in HEK293 cells": 11.3}
{"compound": "CCCCCCCCCCCCCCSc1nc(NCCCCCCCCCCCCC)nc(NCCN2CCN(C)CC2)n1", "note": "[Compound D5S14N13]", "Absolute mRNA transfection efficiency in HEK293 cells": 12.9}
{"compound": "CCCCCCCCCCCCCCCNc1nc(NCCN2CCN(C)CC2)nc(SCCCCCCCCCCCCCC)n1", "note": "[Compound D5S14N15]", "Absolute mRNA transfection efficiency in HEK293 cells": 0.3}
{"compound": "CCCCCCCCCCCCCCCCNc1nc(NCCN2CCN(C)CC2)nc(SCCCCCCCCCCCCCC)n1", "note": "[Compound D5S14N16]", "Absolute mRNA transfection efficiency in HEK293 cells": 0.6}
{"compound": "CCCCCCCCCCCCCCCCCCNc1nc(NCCN2CCN(C)CC2)nc(SCCCCCCCCCCCCCC)n1", "note": "[Compound D5S14N18]", "Absolute mRNA transfection efficiency in HEK293 cells": 0.6}
{"compound": "CCCCCCCCCCCCCCCSc1nc(NCCCCCC)nc(NCCN2CCN(C)CC2)n1", "note": "[Compound D5S15N6]", "Absolute mRNA transfection efficiency in HEK293 cells": 45.9}
{"compound": "CCCCCCCCCCCCCCCSc1nc(NCCCCCCC)nc(NCCN2CCN(C)CC2)n1", "note": "[Compound D5S15N7]", "Absolute mRNA transfection efficiency in HEK293 cells": 25.2}
{"compound": "CCCCCCCCCCCCCCCSc1nc(NCCCCCCCC)nc(NCCN2CCN(C)CC2)n1", "note": "[Compound D5S15N8]", "Absolute mRNA transfection efficiency in HEK293 cells": 94.7}
{"compound": "CCCCCCCCCCCCCCCSc1nc(NCCCCCCCCC)nc(NCCN2CCN(C)CC2)n1", "note": "[Compound D5S15N9]", "Absolute mRNA transfection efficiency in HEK293 cells": 22.3}
{"compound": "CCCCCCCCCCCCCCCSc1nc(NCCCCCCCCCCC)nc(NCCN2CCN(C)CC2)n1", "note": "[Compound D5S15N11]", "Absolute mRNA transfection efficiency in HEK293 cells": 12.7}
{"compound": "CCCCCCCCCCCCCCCSc1nc(NCCCCCCCCCCCC)nc(NCCN2CCN(C)CC2)n1", "note": "[Compound D5S15N12]", "Absolute mRNA transfection efficiency in HEK293 cells": 4.3}
{"compound": "CCCCCCCCCCCCCCCSc1nc(NCCCCCCCCCCCCC)nc(NCCN2CCN(C)CC2)n1", "note": "[Compound D5S15N13]", "Absolute mRNA transfection efficiency in HEK293 cells": 1.5}
{"compound": "CCCCCCCCCCCCCCCNc1nc(NCCN2CCN(C)CC2)nc(SCCCCCCCCCCCCCCC)n1", "note": "[Compound D5S15N15]", "Absolute mRNA transfection efficiency in HEK293 cells": 0.7}
{"compound": "CCCCCCCCCCCCCCCCNc1nc(NCCN2CCN(C)CC2)nc(SCCCCCCCCCCCCCCC)n1", "note": "[Compound D5S15N16]", "Absolute mRNA transfection efficiency in HEK293 cells": 1.4}
{"compound": "CCCCCCCCCCCCCCCCCCNc1nc(NCCN2CCN(C)CC2)nc(SCCCCCCCCCCCCCCC)n1", "note": "[Compound D5S15N18]", "Absolute mRNA transfection efficiency in HEK293 cells": 1.7}
{"compound": "CCCCCCCCCCCCCCCCSc1nc(NCCCCCC)nc(NCCN2CCN(C)CC2)n1", "note": "[Compound D5S16N6]", "Absolute mRNA transfection efficiency in HEK293 cells": 63.2}
{"compound": "CCCCCCCCCCCCCCCCSc1nc(NCCCCCCC)nc(NCCN2CCN(C)CC2)n1", "note": "[Compound D5S16N7]", "Absolute mRNA transfection efficiency in HEK293 cells": 82.6}
{"compound": "CCCCCCCCCCCCCCCCSc1nc(NCCCCCCCC)nc(NCCN2CCN(C)CC2)n1", "note": "[Compound D5S16N8]", "Absolute mRNA transfection efficiency in HEK293 cells": 72.2}
{"compound": "CCCCCCCCCCCCCCCCSc1nc(NCCCCCCCCC)nc(NCCN2CCN(C)CC2)n1", "note": "[Compound D5S16N9]", "Absolute mRNA transfection efficiency in HEK293 cells": 68.1}
{"compound": "CCCCCCCCCCCCCCCCSc1nc(NCCCCCCCCCCC)nc(NCCN2CCN(C)CC2)n1", "note": "[Compound D5S16N11]", "Absolute mRNA transfection efficiency in HEK293 cells": 45.0}
{"compound": "CCCCCCCCCCCCCCCCSc1nc(NCCCCCCCCCCCC)nc(NCCN2CCN(C)CC2)n1", "note": "[Compound D5S16N12]", "Absolute mRNA transfection efficiency in HEK293 cells": 3.4}
{"compound": "CCCCCCCCCCCCCCCCSc1nc(NCCCCCCCCCCCCC)nc(NCCN2CCN(C)CC2)n1", "note": "[Compound D5S16N13]", "Absolute mRNA transfection efficiency in HEK293 cells": 0.7}
{"compound": "CCCCCCCCCCCCCCCCSc1nc(NCCCCCCCCCCCCCCC)nc(NCCN2CCN(C)CC2)n1", "note": "[Compound D5S16N15]", "Absolute mRNA transfection efficiency in HEK293 cells": 0.1}
{"compound": "CCCCCCCCCCCCCCCCNc1nc(NCCN2CCN(C)CC2)nc(SCCCCCCCCCCCCCCCC)n1", "note": "[Compound D5S16N16]", "Absolute mRNA transfection efficiency in HEK293 cells": 0.1}
{"compound": "CCCCCCCCCCCCCCCCCCNc1nc(NCCN2CCN(C)CC2)nc(SCCCCCCCCCCCCCCCC)n1", "note": "[Compound D5S16N18]", "Absolute mRNA transfection efficiency in HEK293 cells": 0.2}
{"compound": "CCCCCCCCCCCCCCCCCCSc1nc(NCCCCCC)nc(NCCN2CCN(C)CC2)n1", "note": "[Compound D5S18N6]", "Absolute mRNA transfection efficiency in HEK293 cells": 73.2}
{"compound": "CCCCCCCCCCCCCCCCCCSc1nc(NCCCCCCC)nc(NCCN2CCN(C)CC2)n1", "note": "[Compound D5S18N7]", "Absolute mRNA transfection efficiency in HEK293 cells": 67.7}
{"compound": "CCCCCCCCCCCCCCCCCCSc1nc(NCCCCCCCC)nc(NCCN2CCN(C)CC2)n1", "note": "[Compound D5S18N8]", "Absolute mRNA transfection efficiency in HEK293 cells": 33.4}
{"compound": "CCCCCCCCCCCCCCCCCCSc1nc(NCCCCCCCCC)nc(NCCN2CCN(C)CC2)n1", "note": "[Compound D5S18N9]", "Absolute mRNA transfection efficiency in HEK293 cells": 11.6}
{"compound": "CCCCCCCCCCCCCCCCCCSc1nc(NCCCCCCCCCCC)nc(NCCN2CCN(C)CC2)n1", "note": "[Compound D5S18N11]", "Absolute mRNA transfection efficiency in HEK293 cells": 1.1}
